Series [1] in a line: Metabolic stability in human liver microsomes. The format is in vitro ADME. The following applies: human liver microsomes 0.5 mg/mL, compound 1 μM.
Description: Metabolic Experiment of Liver Microparticle.
Experiments in microsomes: Human liver microsomes: 0.5 mg/mL, Xenotech; Rat liver microsomes: 0.5 mg/mL, Xenotech; Coenzyme (NADPH/NADH): 1 mM, Sigma Life Science; Magnesium chloride: 5 mM, 100 mM phosphate buffer (pH 7.4).
Preparation of phosphate buffer (100 mM, pH7.4): A pre-formulated 0.5M potassium dihydrogen phosphate (150 mL) was mixed with 0.5M dibasic potassium phosphate (700 mL). The pH of the mixture was adjusted to 7.4 with 0.5M dibasic potassium phosphate solution. The mixture was diluted 5-fold with ultrapure water before use, and magnesium chloride was added to obtain a phosphate buffer (100 mM) containing 100 mM potassium phosphate, 3.3 mM magnesium chloride, pH 7.4.
A NADPH regeneration system solution (containing 6.5 mM NADP, 16.5 mM G-6-P, 3 U/mL G-6-PD, 3.3 mM magnesium chloride) was prepared and placed on wet ice prior to use.
Preparation of stop solution: acetonitrile solution containing 50 ng/mL propranolol hydrochloride and 200 ng/mL tolbutamide (internal standard). 25057.5 μL of phosphate buffer (pH 7.4) was taken into a 50 mL centrifuge tube, to which 812.5 μL human liver microsomes were added, and mixed to obtain a liver microsome dilution solution with a protein concentration of 0.625 mg/mL.
Incubation of the samples: The stock solution of the respective compound was respectively diluted to 0.25 mM with an aqueous solution containing 70% acetonitrile, and used as a working solution, ready for use. 398 μL of the dilution solution of human liver microsomes or rat liver microsome were added to a 96-well incubation plate (N=2), respectively, and 2 μL of 0.25 mM working solution was added and mixed.
Metabolic stability assay: 300 μL of pre-chilled stop solution was added to each well of a 96-well deep well plate and placed on ice as a stop plate. The 96 well incubation plate and NADPH regeneration system were placed in a 37° C. water bath box, shaken at 100 rpm and pre-incubated for 5 min. 80 μL of incubation solution was taken out from each well of the incubation plate and added to the stop plate, mixed, and replenished with 20 μL of NADPH regeneration system solution as a 0-min sample. 80 μL of NADPH regeneration system solution was added to each well of the incubation plate to start the reaction and start counting. […] 100 μL of the supernatant was added to a 96-well plate to which 100 μL of distilled water was previously added, mixed, and analyzed by LC-MS/MS.
Data analysis: The peak areas of the corresponding compound and internal standard were detected by LC-MS/MS system, and the ratio of the peak area of the compound to the internal standard was calculated.
Series [2] has as its system cancer cells expressing the ALK mutant L1196M. The series is described as follows: Cytotoxicity experiments, growth of cells expressing ALK mutant L1196M. The format is cell-based, murine. As to conditions: two days incubation.
Series [3] relates to BaF3-NPM-ALK cells (ALK WT). The series can be described thus: Cytotoxicity experiments, growth of BaF3-NPM-ALK cells, ALK WT. The following applies: two days incubation. The format is cell-based, murine. An excerpt: Cytotoxicity Experiments.
The cell line that can be used in the assay is Ba/F3, a murine pro-B cell line that has been stably transfected with the expression vector pClneo™ (Promega Corp., Madison Wis.) encoding NPM-ALK and subsequently G418-resistent cells were selected. The inhibitory activity of the compounds of Formula I can be determined as follows: BaF3-NPM-ALK cells (15000/well in a microtiter plate) were transferred to a 96-well microtiter plate. Test compounds (dissolved in DMSO) were then added in a series of concentrations (serial dilutions) with a final concentration of DMSO not exceeding 1% (v/v). […] The cell lysis was completed at room temperature within 60 minutes and the amount of Yopro bound to the DNA was determined by measurement using, for example, a CytoFluor II 96-well reader (PerSeptive Biosystems). IC50 can be determined by computer aided system using the following formula: IC50=[(ABS test−ABS start)/(ABS control−ABS start)]×100 wherein ABS was absorption.

Bounds are passed on as bounds.

What is called IC50 is the concentration that inhibits the measured activity by half. A high value points to a need for much substance.

As for `[2H]C([2H])([2H])n1nc2c(c1C#N)-c1cnc(N)c(c1)OC(C)c1cc(F)ccc1C(=O)N(C)C2` (stereo not drawn) [Compound 28], in series [1], the “CLint” value came to 9.7 µL/min/mg and the “t1/2” value turned out to be 2.377 h.

As for `CC1Oc2cc(cnc2N)-c2c(nn(C)c2C#N)CN(C)C(=O)c2ccc(F)cc21` (stereo not drawn) [Compound 18], the results for the IC50 in series [2] and in series [3] were 1 to 100 nM and below 1 nM, respectively.

As to `CC1Oc2cc(cnc2N)-c2c(nn(C)c2C#N)CN(C)C(=O)c2ccc(F)cc21` (stereo not drawn) [Compound 58], the IC50 was 1 to 100 nM in series [2] and below 1 nM in series [3].

On to `CC1Oc2cc(cnc2N)-c2c(nn(C)c2C#N)CN(C)C(=O)c2ccc(F)cc21` (stereo not drawn) [Compound 28], for which the IC50 in series [2] was 1 to 100 nM; in series [3], below 1 nM.

As for `CC1Oc2cc(cnc2N)-c2c(nn(C)c2C#N)CN(C)C(=O)c2ccc(F)cc21` (stereo not drawn) [Compound 45], the IC50 in series [2] was 1 to 100 nM; in series [3] it was below 1 nM.

Turning to `CC1Oc2cc(cnc2N)-c2c(nn(C)c2C#N)CN(C)C(=O)c2ccc(F)cc21` (stereo not drawn) [Compound 76], the half-maximal inhibitory concentration (IC50) in series [2] is 1 to 100 nM; in series [3], below 1 nM.

Regarding `C[C@H]1Oc2cc(cnc2N)-c2c(nn(C)c2C#N)CN(C)C(=O)c2ccc(F)cc21` [PF-06463922, reference compound], the IC50 in series [2] is 1 to 100 nM. For the same compound, the IC50 in series [3] is below 1 nM. In series [1], the “CLint” value was 11.8 µL/min/mg and the “t1/2” value amounted to 1.952 h.

Regarding `CC1Oc2cc(cnc2N)-c2c(nn(C)c2C#N)CN(C)C(=O)c2ccc(F)cc21` (racemic) [Compound 72], the IC50 is 1 to 100 nM in series [2] and below 1 nM in series [3].

For the origin of these results see patent US10543199B2, “Macrocycle and composition comprising thereof” (Shenzhen TargetRx, Inc., priority 2016, dated 2020).
